From PMC7591906, “pHLIP ICG for delineation of tumors and blood flow during fluorescence-guided surgery” (Scientific Reports, 2020)
Entries after “also recorded” stand apart in the source; their conditions may differ. Peptide text beside a SMILES is read from it. * marks the point of attachment. X1 = CC1(C)C(/C=C/C=C/C=C/C=C2/N(CCCCCC(=O)NCCN3C(=O)CC(*)C3=O)c3ccc4ccccc4c3C2(C)C)=[N+](CCCCS(=O)(=O)[O-])c2ccc3ccccc3c21

Tests used:
implanted tumors = experiment: Fluorescence-guided resection of tumors, dose finding; format: in vivo, mice; settings: tail vein, doses 0.5 to 2.5 mg/kg, resection at 24 and 48 h, Stryker SPY-PHI
Procedure: Targeting of murine and human tumors was shown in 8 different tumor models in athymic female nude mice (strain Hsd Athymic Nude-Foxn1nu) ranging in age from 5 to 6 weeks (obtained from Envigo RMS, Inc). The following tumors were established by subcutaneous injection of 1 x 10^6 cells/0.1 ml/flank in flanks of athymic nude mice: HeLa (humans cervical adenocarcinoma), M4A4 (human epithelial carcinoma), 4T1 (murine breast tumor), A549 (human lung carcinoma), LLC (murine Lewis Lung carcinoma), UM-UC3 (human urinary bladder cancer), and 4 x 10^6 cells/0.1 ml/flank of LNCaP tumor (human prostate cancer). Human MDA-MB-231 (breast adenocarcinoma) tumors were established by injections of 1 x 10^6 cells/0.05 ml in the mammary fat pad. […] Finally, surgery was carried out under fluorescence-guidance to remove tumor and to image the tumor bed using the Stryker SPY-PHI handheld clinical imaging system.

[1] = Cardiovascular telemetry study in conscious Beagle dogs (GLP); format: in vivo; settings: male dogs, single i.v. bolus 0.072, 0.36, 1.44 mg/kg, up to 24 h post-dose
Procedure: The objective of this GLP study performed at CRL was to evaluate the potential cardiovascular effects of pHLIP ICG in instrumented dogs when administered by i.v. bolus injection using a Latin square design.
Each of the four male dogs received a dose of Reference Item (5 % Ethanol in Phosphate buffered saline (PBS), pH of 7.4 ± 0.2) and three dose levels of pHLIP ICG (0.072, 0.36, and 1.44 mg/kg), with a 7-day washout period between each dose. The dose was administered by i.v. bolus injection at a dose volume of 2.5 mL/kg.
The following cardiovascular parameters were evaluated for all animals from 2 hours prior and up to 24 hours post each dose: systemic blood pressures (systolic, diastolic, mean arterial, and pulse pressure), heart rate, body temperature, and electrocardiographic duration/intervals (PR, QRS, QT, and QTc). Qualitative evaluation of the electrocardiographic waveforms was performed twice prior to each dose (at least 30 minutes apart) and at 5, 15, and 30 minutes, 1, 2, 3, 4, 6, 12, and 24 hours post-dose. Additional evaluations consisted of mortality and clinical observations. There were no mortalities or pHLIP ICG related clinical signs throughout the course of the study.

**Q.** For `CC(C)C[C@H](NC(=O)[C@H](Cc1ccc(O)cc1)NC(=O)[C@H](C)NC(=O)[C@H](CCCNC(=N)N)NC(=O)[C@H](Cc1c[nH]c2ccccc12)NC(=O)[C@@H]1CCCN1C(=O)[C@H](CC(N)=O)NC(=O)[C@H](CCC(N)=O)NC(=O)[C@H](CC(=O)O)NC(=O)[C@H](CC(=O)O)NC(=O)[C@H](CSC1CC(=O)N(CCNC(=O)CCCCCN2/C(=C/C=C/C=C/C=C/C3=[N+](CCCCS(=O)(=O)[O-])c4ccc5ccccc5c4C3(C)C)C(C)(C)c3c2ccc2ccccc32)C1=O)NC(=O)[C@H](C)N)C(=O)N[C@@H](CC(=O)O)C(=O)N[C@@H](CC(C)C)C(=O)N[C@@H](CC(C)C)C(=O)N[C@@H](Cc1ccccc1)C(=O)N1CCC[C@H]1C(=O)N[C@H](C(=O)N[C@@H](CC(=O)O)C(=O)N[C@H](C(=O)N[C@@H](CC(C)C)C(=O)N[C@@H](CC(C)C)C(=O)N[C@@H](CC(C)C)C(=O)N[C@@H](CC(=O)O)C(=O)N[C@@H](CC(C)C)C(=O)N[C@@H](CC(C)C)C(=O)N[C@@H](Cc1c[nH]c2ccccc12)C(=O)N[C@@H](C)C(=O)O)[C@@H](C)O)[C@@H](C)O` (some centres unmarked) [pHLIP ICG] (H-AC(X1)DDQNPWRAYLDLLFPTDTLLLDLLWA-OH), which “Minimal dose sufficient for successful visualization of tumors” value (implanted tumors) is on record?
**A.** 0.5 mg/kg

**Q.** What about the Cardiovascular effects [1] of the same compound?
**A.** no observable effect on systemic blood pressures, heart rate, body temperature, electrocardiographic intervals; also recorded: no effect on systemic blood pressures, heart rate, body temperature, electrocardiographic intervals, or qualitative ECG parameters
